From patent publication US9592212B2, “Use of pan-PPAR agonists for treatment of tauopathies” (Cornell University, priority 2011, dated 2017)

What was measured:
R6/2 mice [1] = experiment: Behavioral tests (grip strength, open field, rotarod) in R6/2 mice; format: in vivo; conditions: 0.5% bezafibrate diet
Protocol: (§1) All experiments were conducted within National Institutes of Health guidelines for animal research and were approved by the Weill Cornell Medical College Animal Care and Use Committee. The animals were kept on a 12-hr light/dark cycle, with food and water available ad libitum. Mice were fed standard diet containing 0.5% bezafibrate or standard diet (Purina-Mills Richmond, Ind., USA), starting right after weaning up to 3 months of age.
Experimenters were blind to the genotype during all testing, at least until the appearance of a robust behavioral phenotype in the mutants. We utilized a behavioral testing battery consisting of: rotarod, grip strength and open field. […] The latency to fall from the rod was recorded. Exploratory behavior was recorded in the open-field (45 cm×45 cm; height: 20 cm), for 10 min per day using a video tracking system (Ethovision 3.0, Noldus Technology, Attleborough, Mass., USA) and averaged over 3 days. […]
To assess muscle strength we tested the R6/2 mice and their wild-type littermates on the grip strength test (FIG. 2A). […] Motor coordination was assessed by performance on an accelerated rotarod apparatus. Latency to fall was recorded for 3 trials per weekly assessment and scores were averaged (FIG. 2C).

P301S mice = experiment: Mitochondria characterisation in brains of P301S and wild-type mice; format: in vivo
Source text: Animals were generated by breeding P301S transgenic male mice with wild-type female mice obtained from Jackson Laboratory (Bar Harbor, Me., USA). Offspring were genotyped by PCR of tail DNA. P301S transgenic mice and their wild-type littermates were randomly assigned to receive either control diet (LabDiet 5002) or 0.5% bezafibrate diet (Sigma, St. Louis, Mo., USA) from 1 to 10 months of age ad libitum. The chow was pelleted by Purina-Mills (Richmond, Ind., USA). Behavioral analyses were performed at 5, 7, and 9 months of age. Histopathological and biochemical analyses were conducted at 10 months of age on the same animals. All experiments were approved by the Weill Cornell Medical College Institutional Animal Care and Use Committee.
Dissected, non-perfused frontal lobe samples (˜30-55 mg) were stored frozen at ? 80° C. until assaying. Before assays, tissue samples were thawed on ice and homogenized with Dounce-type 2 ml homogenizer (glass vessel/glass pestle). […]
The protein lysates containing equal amounts of protein were separated by SDS-PAGE, electroblotted onto a nitrocellulose membrane (BioRad, Hercules, Calif., USA), and immunoreacted with an appropriate primary antibody (see below) followed by HRP-conjugated secondary antibody (Kierkegaard Perry Labs Inc., Gaithersburg, Md., USA). […] Quantitative analysis was performed using NIH “ImageJ” software. […]

[2] = used in man for more than 25 years; cited from earlier work
R6/2 mice [3] = experiment: Survival of R6/2 mice (Kaplan-Meier); format: in vivo; conditions: 0.5% bezafibrate diet
Protocol: as §1
R6/2 mice normally die prematurely as compared to their wild-type littermates, between the age of 70-91 days (Mangiarini et al. 1996). Symptomatic mice approaching the disease endstage were examined twice daily (morning and late afternoon) to assess when they reached end-stage of the disease, as assessed by the righting reflex or failure to eat moistened chow placed beside mice over a 24 hour period. At this point, mice were euthanized by CO2 inhalation. This day was recorded as time of death of the mice. […] In our hands, the R6/2 mice survived to 77-88 days of age, and the longest living mouse died at 90 days of age (mean=84+1.2 days). Bezafibrate treated R6/2 mice lived 20% longer than the R6/2 mice on a standard diet (mean=102+3.2 days) (FIG. 2D).

N171-82Q mice = conditions: cited from earlier work

Row | SMILES | increase in grip strength compared to untreated R6/2 mice (R6/2 mice [1]) | mitochondrial enzymes and PGC1α in brain (P301S mice) | tolerability in man [2] | increase in survival vs R6/2 mice on standard diet (R6/2 mice [3]) | mean survival (R6/2 mice [3]; standard diet mean=84+1.2 days) | increase in survival (N171-82Q mice)
1 | CC(C)(Oc1ccc(CCNC(=O)c2ccc(Cl)cc2)cc1)C(=O)O [bezafibrate] | up to 2 fold | no effect | well-tolerated with few side effects | 20% | 102+3.2 days | 
2 | CN(CC(=O)O)C(=N)N [creatine] |  |  |  |  |  | 19%
